The subject of test [1] is TNFα production in LPS-stimulated human monocytes. Kind of test: Cot Monocyte TNFα Cell Based Assay. The conditions noted are these: Homo sapiens, Monocyte, read-out: EC50 TNF. The method in brief: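 Cells at 5,000/well were pretreated with compound for 1 h at 37 °C (0.5% DMSO final), then stimulated with 50 pg/ml LPS for 4 h at 37 °C. Supernatant TNFα was measured by two-antibody TR-FRET after overnight room-temperature incubation; values are percent of control between unstimulated and stimulated wells.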

Test [2] has as its target T1, human Cot catalytic domain (30-397 amino acids) (Homo sapiens, UniProt P41279).
T1 construct: Purified recombinant human Cot catalytic domain (30-397 amino acids) was purchased from Cama Biosciences; purchased Cama Biosciences (so in the source)
The test is described as follows: High Throughput Cot Biochemical Assay (KinEASE TR-FRET). Particulars: read-out: IC50 HTRF. The method in brief: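 Reaction of 5 nM recombinant human Cot catalytic domain (aa 30-397) with 1 μM STK3 peptide (XL665-labeled) and 400 μM ATP in 10 mM MOPS pH 7.0, 10 mM MgOAc, 1 mM DTT, 0.5 mg/mL BSA, 0.1% DMSO. Phosphopeptide detected by TR-FRET with europium anti-phospho antibody.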
(In general: Time-resolved FRET reads energy transfer from a long-lived donor to a nearby acceptor.)

[3] abbreviates: TNFα in LPS-stimulated human monocytes.
Where [4] appears, read: Cot biochemical HTRF (KinEASE TR-FRET) assay.
[5] abbreviates: LPS-stimulated human monocytes, TNFα TR-FRET.
Where [6] appears, read: Cot KinEASE TR-FRET, 400 μM ATP.
Setting [7] is: Cot KinEASE TR-FRET (HTRF) biochemical assay, 400 μM ATP.

By EC50 is commonly meant the concentration needed to bring the measured effect to its halfway point. As usually defined, the IC50 is the point on the concentration scale where inhibition reaches its midpoint.

Where two headings read alike, the source gives them in different places. Where only a bound is given, the exact number is not on record here.

T1 sequence (P41279 30-397): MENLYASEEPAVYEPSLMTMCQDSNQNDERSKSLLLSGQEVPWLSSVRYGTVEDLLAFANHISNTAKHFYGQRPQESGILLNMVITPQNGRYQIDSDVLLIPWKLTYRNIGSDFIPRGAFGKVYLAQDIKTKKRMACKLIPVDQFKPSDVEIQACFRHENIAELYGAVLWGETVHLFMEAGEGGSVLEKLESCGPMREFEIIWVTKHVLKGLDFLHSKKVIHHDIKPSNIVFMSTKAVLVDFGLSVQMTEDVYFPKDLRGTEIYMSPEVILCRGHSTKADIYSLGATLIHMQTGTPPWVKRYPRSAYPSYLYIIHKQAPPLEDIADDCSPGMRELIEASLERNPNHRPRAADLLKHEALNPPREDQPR

In the case of `CC[C@@H](Nc1c(C#N)cnc2c(Cl)cc(N[C@@H](c3cccc(N(C)C(C)=O)c3)c3c[nH]nn3)cc12)c1ccccc1` [Example 563, N-(3-((S)-((8-chloro-3-cyano-4-(((R)-1-phenylpropyl)amino)quinolin-6-yl)amino)(1H-1,2,3-triazol-4-yl)methyl)phenyl)-N-methylacetamide], in test [1] (setting [3]), the 50% effective concentration (EC50) came out at 280 nM. Besides, the IC50 in test [2] (setting [4]) is 2 nM.

Consider `CC(C)(C)CNc1c(C#N)cnc2c(C#N)cc(N[C@@H](c3ccc(F)cc3)c3cn(C4(C5CC5)CC4)nn3)cc12` [Example 973, (S)-6-(((1-([1,1'-bi (cyclopropan)]-1-yl)-1H-1,2,3-triazol-4-yl)(4-fluorophenyl)methyl)amino)-4-(neopentylamino) quinoline-3,8-dicarbonitrile], for which, in test [1] (setting [5]), the EC50 is 67 nM. Moreover, in test [2] (setting [6]), the IC50 is 9 nM.

With `CC[C@@H](Nc1c(C#N)cnc2c(Cl)cc(N[C@H](c3cnn(C(F)F)n3)c3cccc(F)c3F)cc12)c1ccccc1` [Example 426, 8-chloro-6-(((S)-(2-(difluoromethyl)-2H-1,2,3-triazol-4-yl)(2,3-difluorophenyl)methyl)amino)-4-(((R)-1-phenylpropyl)amino) quinoline-3-carbonitrile], the EC50 in test [1] (setting [3]) was more than 10000 nM. For the same compound, in test [2] (setting [4]), the half-maximal inhibitory concentration (IC50) is 3150 nM.

`CC[C@@H](Nc1c(C#N)cnc2c(Cl)cc(N[C@H](c3cn(CCF)nn3)c3ccccc3F)cc12)c1ccccc1` [Example 446, 8-chloro-6-(((S)-(1-(2-fluoroethyl)-1H-1,2,3-triazol-4-yl)(2-fluorophenyl)methyl)amino)-4-(((R)-1-phenylpropyl)amino) quinoline-3-carbonitrile]: the concentration for a half-maximal effect (EC50) in test [1] (setting [3]) is 338 nM. Besides, in test [2] (setting [4]), the half-maximal inhibitory concentration (IC50) was 11 nM.

`CC(C)(C)N1CCC(n2cc([C@@H](Nc3cc(Cl)c4ncc(C#N)c(Nc5ccc(F)c(Cl)c5)c4c3)c3ccccc3CN3CCOCC3)nn2)CC1` [Example 719, (S)-6-(((1-(1-(tert-butyl)piperidin-4-yl)-1H-1,2,3-triazol-4-yl)(2-(morpholinomethyl)phenyl)methyl)amino)-8-chloro-4-((3-chloro-4-fluorophenyl)amino)quinoline-3-carbonitrile]: the EC50 in test [1] (setting [3]) amounted to 2580 nM. In addition, the IC50 in test [2] (setting [4]) worked out at 41 nM.

In the case of `[2H]C(Nc1cc(Cl)c2ncc(C#N)c(NC(CCC#N)c3ccccc3)c2c1)(c1cn(C2CC2)nn1)c1ccccc1Cl` (stereo not shown) [Example 87, 8-chloro-6-(((2-chlorophenyl) (1-cyclopropyl-1H-1,2,3-triazol-4-yl)methyl-d)amino)-4-((3-cyano-1-phenylpropyl)amino) quinoline-3-carbonitrile], in test [1] (setting [3]), the 50% effective concentration (EC50) is more than 1000 nM. For the same compound, the half-inhibitory concentration (IC50) in test [2] (setting [7]) was more than 10000 nM.

On to `[2H][C@](Nc1cc(Cl)c2ncc(C#N)c(N[C@H]3CCC[C@@H](O)C3)c2c1)(c1ccc(F)cc1)c1cn(C2CC2)nn1` [Example 315, 8-chloro-6-(((S)-(1-cyclopropyl-1H-1,2,3-triazol-4-yl)(4-fluorophenyl)methyl-d)amino)-4-(((1S,3R)-3-hydroxycyclohexyl)amino) quinoline-3-carbonitrile], for which the EC50 in test [1] (setting [3]) stood at 1010 nM. Further, the concentration for half-maximal inhibition (IC50) in test [2] (setting [7]) was determined as 134 nM.

Consider `Cc1c(C#N)cccc1[C@H](Nc1cc(C#N)c2ncc(C#N)c(NCC(C)(C)C(F)(F)F)c2c1)c1cn(C2(C(F)F)CC2)nn1` [Example 1125, (S)-6-(((3-cyano-2-methylphenyl)(1-(1-(difluoromethyl)cyclopropyl)-1H-1,2,3-triazol-4-yl)methyl)amino)-4-((3,3,3-trifluoro-2,2-dimethylpropyl)amino)quinoline-3,8-dicarbonitrile], for which the EC50 in test [1] (setting [5]) was 51 nM. Also, the IC50 in test [2] (setting [6]) was determined as 4 nM.

Consider `N#Cc1cnc2c(Cl)cc(N[C@@H](c3ccc(F)cc3)c3cn(C4CC4)nn3)cc2c1NC(CC(F)(F)F)c1ccccc1` (stereo partly drawn) [Example 347, 8-chloro-6-(((S)-(1-cyclopropyl-1H-1,2,3-triazol-4-yl)(4-fluorophenyl)methyl)amino)-4-((3,3,3-trifluoro-1-phenylpropyl)amino)quinoline-3-carbonitrile], for which the EC50 in test [1] (setting [3]) was found to be 773 nM. Moreover, the concentration for half-maximal inhibition (IC50) in test [2] (setting [7]) amounted to 24 nM.

On to `Cc1ccccc1[C@H](Nc1cc(C#N)c2ncc(C#N)c(NCC(C)(C)C)c2c1)c1cn(C2(C#N)CC2)nn1` [Example 1024, (S)-6-(((1-(1-cyanocyclopropyl)-1H-1,2,3-triazol-4-yl)(o-tolyl)methyl)amino)-4-(neopentylamino)quinoline-3,8-dicarbonitrile], for which the EC50 in test [1] (setting [5]) came out at 54 nM. Also, in test [2] (setting [6]), the IC50 came to 5 nM.

Turning to `[2H][C@](Nc1cc(Cl)c2ncc(C#N)c(NCC(C)(C)C)c2c1)(c1ccc(Cl)cc1)c1cn(C2CC2)nn1` [Example 936, (S)-8-chloro-6-(((4-chlorophenyl)(1-cyclopropyl-1H-1,2,3-triazol-4-yl)methyl-d)amino)-4-(neopentylamino) quinoline-3-carbonitrile], the 50% effective concentration (EC50) in test [1] (setting [5]) was determined as 222 nM. In test [2] (setting [6]), the IC50 is 12 nM.

For the compound `CC(C)(C)CNc1c(C#N)cnc2c(Cl)cc(N[C@@H](c3ccc(F)cc3)c3cn(CC(F)F)nn3)cc12` [Example 1002, (S)-8-chloro-6-(((1-(2,2-difluoroethyl)-1H-1,2,3-triazol-4-yl) (4-fluorophenyl)methyl)amino)-4-(neopentylamino) quinoline-3-carbonitrile], in test [1] (setting [5]), the EC50 was determined as 202 nM. In addition, the IC50 in test [2] (setting [6]) came to 14 nM.

As to `[2H][C@](Nc1cc(Cl)c2ncc(C#N)c(Nc3cnc(F)c(F)c3)c2c1)(c1ccc(Cl)cc1)c1c[nH]nn1` [Example 387, (S)-8-chloro-6-(((4-chlorophenyl)(1H-1,2,3-triazol-4-yl)methyl-d)amino)-4-((5,6-difluoropyridin-3-yl)amino)quinoline-3-carbonitrile], in test [1] (setting [3]), the EC50 came out at 809 nM. For the same compound, the concentration for half-maximal inhibition (IC50) in test [2] (setting [7]) is 50 nM.

For the compound `[2H][C@](Nc1cc(Cl)c2ncc(C#N)c(NCC(C)(C)CO)c2c1)(c1ccc(F)cc1)c1cn(C2CC2)nn1` [Example 308, (S)-8-chloro-6-(((1-cyclopropyl-1H-1,2,3-triazol-4-yl)(4-fluorophenyl)methyl-d)amino)-4-((3-hydroxy-2,2-dimethylpropyl)amino) quinoline-3-carbonitrile], the concentration for a half-maximal effect (EC50) in test [1] (setting [3]) amounted to 361 nM. Also, the IC50 in test [2] (setting [7]) stood at 26 nM.

Turning to `N#Cc1cnc2c(Cl)cc(NC(c3ccccc3)c3nn[nH]c3CN3CCOCC3)cc2c1Nc1ccc(F)c(Cl)c1` (stereo not shown) [Example 519, 8-chloro-4-((3-chloro-4-fluorophenyl)amino)-6-(((5-(morpholinomethyl)-1H-1,2,3-triazol-4-yl)(phenyl)methyl)amino) quinoline-3-carbonitrile], the EC50 in test [1] (setting [3]) came to 3150 nM. In addition, the IC50 in test [2] (setting [4]) worked out at 301 nM.

Take `[2H][C@@](Nc1cc(Cl)c2ncc(C#N)c(NC3(c4ccccc4)CC3)c2c1)(c1cn(C2CC2)nn1)c1ccccc1Cl` [Example 356]: in test [1] (setting [3]), the 50% effective concentration (EC50) turned out to be 6660 nM. For the same compound, the IC50 in test [2] (setting [7]) was 550 nM.

Turning to `CC(C)(C)N1CCC(n2cc([C@@H](Nc3cc(Cl)c4ncc(C#N)c(Nc5cc(F)cc(Cl)c5)c4c3)c3ccc(Cl)cc3)nn2)CC1` [Example 696, (S)-6-(((1-(1-(tert-butyl)piperidin-4-yl)-1H-1,2,3-triazol-4-yl)(4-chlorophenyl)methyl)amino)-8-chloro-4-((3-chloro-5-fluorophenyl)amino)quinoline-3-carbonitrile], in test [1] (setting [3]), the concentration for a half-maximal effect (EC50) was 3290 nM. For the same compound, the IC50 in test [2] (setting [4]) was determined as 85 nM.

(Values after patent publication US10316017B2, “COT modulators and methods of use thereof” (Gilead Sciences, Inc., priority 2015, dated 2019).)
